The values below come from ChEMBL document CHEMBL1944529, “Structure-based design, synthesis and structure-activity relationships of dibenzosuberyl- and benzoate-substituted tropines as ligands for acetylcholine-binding protein” (Bioorg Med Chem Lett, 2012).

Each structure is given as a SMILES string. pKi: −log10 of the molar value. Some results are limits rather than exact numbers.

Assay [1] deals with T1, Soluble acetylcholine receptor (Aplysia californica, UniProt Q8WSF8).
T1 sequence (Q8WSF8 whole entry): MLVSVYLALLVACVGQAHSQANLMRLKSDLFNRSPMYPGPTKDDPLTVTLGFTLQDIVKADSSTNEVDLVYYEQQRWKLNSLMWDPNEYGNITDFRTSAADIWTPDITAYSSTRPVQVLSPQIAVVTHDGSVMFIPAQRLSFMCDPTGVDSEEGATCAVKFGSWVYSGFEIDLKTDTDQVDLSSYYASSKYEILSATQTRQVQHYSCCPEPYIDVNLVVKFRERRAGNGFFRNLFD
The assay is described as follows: Displacement of [3H]epibatidine from Aplysia californica acetylcholine binding protein expressed using baculoviral system after 1.5 hrs by scintillation counting. (Displacement assays read how much labelled ligand stays bound in the presence of the test substance.)

Assay [2] has as its target Acetylcholine-binding protein (Lymnaea stagnalis, UniProt P58154). The assay can be described thus: Displacement of [3H]epibatidine from Lymnaea stagnalis acetylcholine binding protein expressed using baculoviral system after 1.5 hrs by scintillation counting.
Assay [3] deals with Neuronal acetylcholine receptor; alpha4/beta2 (Homo sapiens, UniProt P17787+P43681). The assay is described as follows: Displacement of [3H]epibatidine from human nAChR alpha4beta2 receptor expressed in human HEK293T cells by scintillation counting. The class given is cell-based, HEK-293T.
In assay [4] the target is Neuronal acetylcholine receptor subunit alpha-7 (Homo sapiens, UniProt P36544). The assay is described as follows: Displacement of [3H]MLA from nAChR alpha7 receptor in human SH-SY5Y cells by scintillation counting. The class given is cell-based.

For orientation: pKi means −log10 of the Ki, conventionally taken in molar units. Read a high pKi as a small Ki.

Sequence of Neuronal acetylcholine receptor subunit alpha-7 (P36544 whole entry): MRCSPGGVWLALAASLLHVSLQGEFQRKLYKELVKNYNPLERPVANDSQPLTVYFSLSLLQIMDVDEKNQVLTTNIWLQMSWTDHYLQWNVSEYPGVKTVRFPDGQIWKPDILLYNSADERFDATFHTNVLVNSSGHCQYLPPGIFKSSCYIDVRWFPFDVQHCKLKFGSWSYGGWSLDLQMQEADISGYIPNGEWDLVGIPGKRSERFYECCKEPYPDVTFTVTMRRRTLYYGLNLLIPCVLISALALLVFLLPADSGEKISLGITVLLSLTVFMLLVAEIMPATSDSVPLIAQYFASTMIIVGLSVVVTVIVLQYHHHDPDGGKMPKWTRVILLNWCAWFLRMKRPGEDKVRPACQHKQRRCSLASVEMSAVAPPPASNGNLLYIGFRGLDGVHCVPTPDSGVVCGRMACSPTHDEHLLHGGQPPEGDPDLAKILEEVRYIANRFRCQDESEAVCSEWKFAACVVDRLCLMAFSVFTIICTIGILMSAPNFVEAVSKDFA
Sequence of Neuronal acetylcholine receptor; alpha4/beta2 (P17787 whole entry): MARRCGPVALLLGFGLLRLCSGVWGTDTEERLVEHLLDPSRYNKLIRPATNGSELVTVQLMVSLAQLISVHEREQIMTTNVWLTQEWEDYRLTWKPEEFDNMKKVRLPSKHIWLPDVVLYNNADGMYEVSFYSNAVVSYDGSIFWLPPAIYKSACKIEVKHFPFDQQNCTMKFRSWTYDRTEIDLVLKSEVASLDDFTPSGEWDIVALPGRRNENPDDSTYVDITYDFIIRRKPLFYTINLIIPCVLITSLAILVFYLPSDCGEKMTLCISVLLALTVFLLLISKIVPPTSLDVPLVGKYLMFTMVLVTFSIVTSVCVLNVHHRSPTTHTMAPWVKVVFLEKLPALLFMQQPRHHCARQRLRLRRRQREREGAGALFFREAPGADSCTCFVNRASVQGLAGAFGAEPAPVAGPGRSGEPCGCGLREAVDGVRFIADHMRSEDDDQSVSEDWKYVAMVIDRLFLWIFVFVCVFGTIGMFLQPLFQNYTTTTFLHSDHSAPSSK
Sequence of Neuronal acetylcholine receptor; alpha4/beta2 (P43681 whole entry): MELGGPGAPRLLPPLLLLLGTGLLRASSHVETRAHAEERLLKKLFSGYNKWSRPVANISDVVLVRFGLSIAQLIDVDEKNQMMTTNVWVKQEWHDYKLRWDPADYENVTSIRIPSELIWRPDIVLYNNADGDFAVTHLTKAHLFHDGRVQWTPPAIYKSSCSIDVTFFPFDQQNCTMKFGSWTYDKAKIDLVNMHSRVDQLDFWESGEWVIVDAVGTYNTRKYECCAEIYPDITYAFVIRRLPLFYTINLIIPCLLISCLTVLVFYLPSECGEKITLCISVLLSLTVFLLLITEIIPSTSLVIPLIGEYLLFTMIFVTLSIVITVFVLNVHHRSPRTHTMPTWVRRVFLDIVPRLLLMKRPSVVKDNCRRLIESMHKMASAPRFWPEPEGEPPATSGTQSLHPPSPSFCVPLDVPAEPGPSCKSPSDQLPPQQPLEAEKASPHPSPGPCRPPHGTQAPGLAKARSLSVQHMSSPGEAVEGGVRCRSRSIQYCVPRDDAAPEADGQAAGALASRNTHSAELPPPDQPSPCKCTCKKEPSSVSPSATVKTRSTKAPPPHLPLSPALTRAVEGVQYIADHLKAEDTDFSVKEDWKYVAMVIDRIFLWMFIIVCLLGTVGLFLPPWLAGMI
Sequence of Acetylcholine-binding protein (P58154 whole entry): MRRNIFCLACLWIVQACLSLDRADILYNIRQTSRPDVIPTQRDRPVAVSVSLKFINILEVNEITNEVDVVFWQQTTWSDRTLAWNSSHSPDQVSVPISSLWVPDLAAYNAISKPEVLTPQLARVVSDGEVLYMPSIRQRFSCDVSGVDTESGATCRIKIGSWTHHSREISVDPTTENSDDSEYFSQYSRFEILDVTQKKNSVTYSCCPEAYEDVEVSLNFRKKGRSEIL

As for `c1ccc(CN2[C@@H]3CC[C@H]2C[C@@H](OC2c4ccccc4CCc4ccccc42)C3)cc1`, the figures for the pKi in assay [1] and in assay [2] were 5.00 and 6.60, respectively.

Regarding `C[N+]1(C[C@H](O)c2ccccc2)[C@@H]2CC[C@H]1C[C@@H](OC(=O)c1ccccc1)C2` (stereo partly drawn), the pKi in assay [1] was 6.10; in assay [2], 6.90.

With `c1ccc2c(c1)CCc1ccccc1C2O[C@H]1C[C@H]2CC[C@@H](C1)N2`, the values for the pKi in assay [1] and in assay [2] were 5.00 and 6.00, respectively.

In the case of `O=C(O[C@H]1C[C@H]2CC[C@@H](C1)N2CCc1ccccc1)c1ccccc1`, the pKi in assay [3] was less than 4.50; in assay [1], 7.50; in assay [2] it was 7.10; in assay [4], 5.10.

Consider `C[N+]1(CC(O)c2ccccc2)[C@@H]2CC[C@H]1C[C@@H](OC(=O)c1ccccc1)C2` (stereo partly drawn), for which the pKi in assay [3] was less than 4.50; in assay [1], 5.70; in assay [2], 6.90; in assay [4], 5.00.

Take `C[N+]1(CCc2ccccc2)[C@@H]2CC[C@H]1C[C@@H](OC1c3ccccc3CCc3ccccc31)C2` (stereo partly drawn): the pKi was less than 4.50 in assay [3], 6.20 in assay [1], 7.40 in assay [2] and 5.80 in assay [4].

Take `CN1[C@@H]2CC[C@H]1C[C@@H](OC1c3ccccc3CCc3ccccc31)C2` [DEPTROPINE]: the pKi is 5.20 in assay [1] and 5.70 in assay [2].

On to `O=C(O[C@@H]1C[C@H]2CC[C@@H](C1)N2)c1ccccc1`, for which the pKi in assay [1] was 4.80; in assay [2] it was 5.10.

With `O=C(O[C@H]1C[C@H]2CC[C@@H](C1)N2C[C@H](O)c1ccccc1)c1ccccc1`, the pKi in assay [1] is 7.00; in assay [2] it was 6.10.

Regarding `O=C(O[C@H]1C[C@H]2CC[C@@H](C1)N2CCc1cccc(O)c1)c1ccccc1`, the pKi in assay [3] was less than 4.50; in assay [1] it was 6.70; in assay [2] it was 7.00; in assay [4] it was 4.90.

Consider `OC(CN1[C@@H]2CC[C@H]1C[C@@H](OC1c3ccccc3CCc3ccccc31)C2)c1ccccc1` (mixture of isomers), for which the pKi in assay [3] is less than 4.50; in assay [1], 4.90; in assay [2], 5.70; in assay [4], 4.70.

In the case of `CN1[C@@H]2CC[C@H]1C[C@H](OC(=O)c1ccccc1)C2`, the pKi in assay [1] is 4.80; in assay [2], 5.20.

With `O=C(O[C@H]1C[C@H]2CC[C@@H](C1)N2CC(O)c1cccc(O)c1)c1ccccc1` (stereo partly drawn), the pKi in assay [3] is less than 4.50; in assay [1] it was 6.20; in assay [2] it was 6.10; in assay [4], 4.60.

As for `O=C(O[C@H]1C[C@H]2CC[C@@H](C1)N2C[C@@H](O)c1ccccc1)c1ccccc1`, the pKi is 6.10 in assay [1] and 5.90 in assay [2].

For the molecule `c1ccc(CCN2[C@@H]3CC[C@H]2C[C@@H](OC2c4ccccc4CCc4ccccc42)C3)cc1`, the pKi is less than 4.50 in assay [3], 5.00 in assay [1], 7.00 in assay [2] and 4.90 in assay [4].

With `O=C(O[C@H]1C[C@H]2CC[C@@H](C1)N2CC(O)c1ccccc1)c1ccccc1` (mixture of isomers), the pKi in assay [3] is less than 4.50; in assay [1] it was 6.80; in assay [2] it was 6.20; in assay [4] it was 4.90.

Consider `O=C(O[C@H]1C[C@H]2CC[C@@H](C1)N2CC(O)c1cc(O)cc(O)c1)c1ccccc1` (stereo partly drawn), for which the pKi in assay [3] was less than 4.50; in assay [1], 5.10; in assay [2], 6.40; in assay [4], 4.80.

Take `O=C(O[C@@H]1C[C@H]2CC[C@@H](C1)N2CC(O)c1cc(O)cc(O)c1)c1ccccc1` (stereo partly drawn): the pKi is less than 4.50 in assay [3], 4.70 in assay [1], 5.70 in assay [2] and 4.90 in assay [4].

Consider `Oc1cccc(C(O)CN2[C@@H]3CC[C@H]2C[C@@H](OC2c4ccccc4CCc4ccccc42)C3)c1` (mixture of isomers), for which the pKi was less than 4.50 in assay [3], 4.50 in assay [1], 5.70 in assay [2] and 4.40 in assay [4].

For `CN1[C@@H]2CC[C@H]1C[C@@H](OC(=O)c1ccccc1)C2` [BENZOYL TROPINE], the pKi in assay [3] is less than 4.50; in assay [1], 5.40; in assay [2], 5.70; in assay [4], 4.80.

`O=C(O[C@@H]1C[C@H]2CC[C@@H](C1)N2CCc1ccccc1)c1ccccc1`: the pKi in assay [3] is less than 4.50; in assay [1], 6.00; in assay [2], 6.40; in assay [4] it was 5.30.

With `C[N+]1(CCc2ccccc2)[C@@H]2CC[C@H]1C[C@@H](OC(=O)c1ccccc1)C2` (stereo partly drawn), the pKi in assay [3] is less than 4.50; in assay [1], 6.80; in assay [2], 7.50; in assay [4], 5.20.

As for `O=C(O[C@H]1C[C@H]2CC[C@@H](C1)N2)c1ccccc1`, the pKi in assay [3] was less than 4.50; in assay [1] it was 5.30; in assay [2], 6.10; in assay [4], 5.50.

Consider `CN1[C@@H](CC(=O)c2ccccc2)CCC[C@H]1C[C@H](O)c1ccccc1` [LOBELINE], for which the pKi in assay [1] is 8.60; in assay [4] it was 5.10.

Consider `C[N+]1(C)[C@@H]2CC[C@H]1C[C@@H](OC1c3ccccc3CCc3ccccc31)C2`, for which the pKi is less than 4.50 in assay [3], 6.00 in assay [1], 6.50 in assay [2] and 6.00 in assay [4].

Take `CN1CCC[C@H]1c1cccnc1` [NICOTINE]: in assay [1], the pKi is 5.60.
